Data taken from patent publication US20190307776A1, “AZA-S[…] HUMAN IMMUNODEFICIENCY VIRUS REPLICATION” (priority 2016, published 2019).

test system: recombinant NL4-3 virus; assay: HIV cell culture assay; type: cell-based; settings: Human immunodeficiency virus 1, NL43, MT2
How it was run: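 Antiviral activity measured in MT-2 cells infected 4–5 days with NL4-3 carrying Renilla luciferase in place of part of nef plus Gag P373S, in the presence of serial inhibitor dilutions. Read-out was luciferase activity by Dual Luciferase lysis/substrate mix.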

Structure (SMILES)	EC50
C=C(C)[C@@H]1CC[C@]2(CNCCCN3CCS(=O)(=O)CC3)CC[C@]3(C)[C@H](CC[C@@H]4[C@@]5(C)CCN(c6ccc(C(=O)O)cc6)C(C)(C)[C@@H]5CC[C@]43C)[C@@H]12 [Example 48, 4-((4aR,6aR,6bR,8aS,11R,11aR,11bR,13aR,13bR)-8a-(((3-(1,1-dioxidothiomorpholino)propyl)amino)methyl)-4,4,6a,6b,13b-pentamethyl-11-(prop-1-en-2-yl)hexadecahydro-1H-cyclopenta[5,6]naphtho[2,1-f]isoquinolin-3(2H,4H,13bH)-yl)benzoic acid]	5 nM
C=C(C)[C@@H]1CC[C@]2(CNCCCN3CCS(=O)(=O)CC3)CC[C@]3(C)[C@H](CC[C@@H]4[C@@]5(C)CCN(c6ncc(C(=O)O)cn6)C(C)(C)[C@@H]5CC[C@]43C)[C@@H]12 [Example 49, 2-((4aR,6aR,6bR,8aS,11R,11aR,11bR,13aR,13bR)-8a-(((3-(1,1-dioxidothiomorpholino)propyl)amino)methyl)-4,4,6a,6b,13b-pentamethyl-11-(prop-1-en-2-yl)hexadecahydro-1H-cyclopenta[5,6]naphtho[2,1-f]isoquinolin-3(2H,4H,13bH)-yl)pyrimidine-5-carboxylic acid]	0.7 nM
C=C(C)[C@@H]1CC[C@]2(CNCCCN3CCS(=O)(=O)CC3)CC[C@]3(C)[C@H](CC[C@@H]4[C@@]5(C)CCN(c6ncc(C(N)=O)cn6)C(C)(C)[C@@H]5CC[C@]43C)[C@@H]12 [Example 50, 2-((4aR,6aR,6bR,8aS,11R,11aR,11bR,13aR,13bR)-8a-(((3-(1,1-dioxidothiomorpholino)propyl)amino)methyl)-4,4,6a,6b,13b-pentamethyl-11-(prop-1-en-2-yl)hexadecahydro-1H-cyclopenta[5,6]naphtho[2,1-f]isoquinolin-3(2H,4H,13bH)-yl)pyrimidine-5-carboxamide]	60 nM
C=C(C)[C@@H]1CC[C@]2(CN(C)CCCN3CCS(=O)(=O)CC3)CC[C@]3(C)[C@H](CC[C@@H]4[C@@]5(C)CCN(c6ccc(C(=O)O)nc6)C(C)(C)[C@@H]5CC[C@]43C)[C@@H]12 [Example 51, 5-((4aR,6aR,6bR,8aS,11R,11aR,11bR,13aR,13bR)-8a-(((3-(1,1-dioxidothiomorpholino)propyl)(methyl)amino)methyl)-4,4,6a,6b,13b-pentamethyl-11-(prop-1-en-2-yl)hexadecahydro-1H-cyclopenta[5,6]naphtho[2,1-f]isoquinolin-3(2H,4H,13bH)-yl)picolinic acid]	26 nM
C=C(C)[C@@H]1CC[C@]2(C(=O)O)CC[C@]3(C)[C@H](CC[C@@H]4[C@@]5(C)CCN(c6ncc(C(=O)O)cn6)C(C)(C)[C@@H]5CC[C@]43C)[C@@H]12 [Example 52, (4aR,6aR,6bR,8aS,11R,11aR,11bR,13aR,13bR)-3-(5-carboxypyrimidin-2-yl)-4,4,6a,6b,13b-pentamethyl-11-(prop-1-en-2-yl)icosahydro-1H-cyclopenta[5,6]naphtho[2,1-f]isoquinoline-8a-carboxylic acid]	62 nM
C=C(C)[C@@H]1CC[C@]2(NCCN3CCS(=O)(=O)CC3)CC[C@]3(C)[C@H](CC[C@@H]4[C@@]5(C)CCN(c6ncc(C(=O)O)cn6)C(C)(C)[C@@H]5CC[C@]43C)[C@@H]12 [Example 53, 2-((4aR,6aR,6bR,8aS,11R,11aR,11bR,13aR,13bR)-8a-((2-(1,1-dioxidothiomorpholino)ethyl)amino)-4,4,6a,6b,13b-pentamethyl-11-(prop-1-en-2-yl)hexadecahydro-1H-cyclopenta[5,6]naphtho[2,1-f]isoquinolin-3(2H,4H,13bH)-yl)pyrimidine-5-carboxylic acid]	1 nM
C=C(C)[C@@H]1CC[C@]2(CNCCCN3CCS(=O)(=O)CC3)CC[C@]3(C)[C@H](CC[C@@H]4[C@@]5(C)CCN(c6ccc(C(=O)O)nn6)C(C)(C)[C@@H]5CC[C@]43C)[C@@H]12 [Example 54, 6-((4aR,6aR,6bR,8aS,11R,11aR,11bR,13aR,13bR)-8a-(((3-(1,1-dioxidothiomorpholino)propyl)amino)methyl)-4,4,6a,6b,13b-pentamethyl-11-(prop-1-en-2-yl)hexadecahydro-1H-cyclopenta[5,6]naphtho[2,1-f]isoquinolin-3(2H,4H,13bH)-yl)pyridazine-3-carboxylic acid]	280 nM
C=C(C)[C@@H]1CC[C@]2(CNCCCN3CCS(=O)(=O)CC3)CC[C@]3(C)[C@H](CC[C@@H]4[C@@]5(C)CCN(c6c(O)c(=O)c6=O)C(C)(C)[C@@H]5CC[C@]43C)[C@@H]12 [Example 55, 3-((4aR,6aR,6bR,8aS,11R,11aR,11bR,13aR,13bR)-8a-(((3-(1,1-dioxidothiomorpholino)propyl)amino)methyl)-4,4,6a,6b,13b-pentamethyl-11-(prop-1-en-2-yl)hexadecahydro-1H-cyclopenta[5,6]naphtho[2,1-f]isoquinolin-3(2H,4H,13bH)-yl)-4-hydroxycyclobut-3-ene-1,2-dione]	250 nM
C=C(C)[C@@H]1CC[C@]2(CNCCCN3CCS(=O)(=O)CC3)CC[C@]3(C)[C@H](CC[C@@H]4[C@@]5(C)CCN(c6ncc(C(=O)O)s6)C(C)(C)[C@@H]5CC[C@]43C)[C@@H]12 [Example 56, 2-((4aR,6aR,6bR,8aS,11R,11aR,11bR,13aR,13bR)-8a-(((3-(1,1-dioxidothiomorpholino)propyl)amino)methyl)-4,4,6a,6b,13b-pentamethyl-11-(prop-1-en-2-yl)hexadecahydro-1H-cyclopenta[5,6]naphtho[2,1-f]isoquinolin-3(2H,4H,13bH)-yl)thiazole-5-carboxylic acid]	4 nM
